No end group written: not given here.
Key:
[1] = In vivo CSF accumulation and brain distribution of dye-labeled MTS after IV tail vein injection; design: species or system rat; details: for amount present relative to MTS_CPEC4_V2 / distribution in brain (fluorescence imaging of coronal slices): rat, IV tail vein; for amount present relative to MTS_CPEC4_V2: CSF, dimeric peptide, fold higher than MTS_CPEC4_V2; for distribution in brain (fluorescence imaging of coronal slices): dye-labeled MTS
Method: The MTS is labeled with a dye that allows us to visualize its location. It is injected IV into the tail vein of a rat. After the indicated time, the CSF is isolated from the cisterna magna. The brain is harvested. After a fixation period, the brain is sliced in 1 mm coronal segments (front to back). The individual slices of the brain are imaged using fluorescence to locate the regions of peptide accumulation.
Dimeric MTS_Z310-5 is present in an amount 3× higher than MTS_CPEC4_V2 (FIG. 26). […] The MTS is labeled with a dye that allows us to visualize its location. It is injected IV into the tail vein of a rat. After the indicated time, the CSF is isolated from the cisterna magna. The brain is harvested. After a fixation period, the brain is sliced in 1 mm coronal segments (front to back). The individual slices of the brain are imaged using fluorescence to locate the regions of peptide accumulation
Dimeric MTS_Z310-2 is present in an amount 9× higher than MTS_CPEC4_V2 (FIG. 27). […] The MTS is labeled with a dye that allows us to visualize its location. It is injected IV into the tail vein of a rat. After the indicated time, the CSF is isolated from the cisterna magna. The brain is harvested. After a fixation period, the brain is sliced in 1 mm coronal segments (front to back). The individual slices of the brain are imaged using fluorescence to locate the regions of peptide accumulation

choroid plexus cells = assay: Transport across monolayer of choroid plexus cells with dye or streptavidin cargo (FIG. 21); format: cell-based; details: chemical (AF647 dye) and protein (50 kDa Streptavidin) cargoes
Text: The integrity of the monolayer with tight junctions is observed by the lack of diffusion or transport of low a molecular weight dye (750) maleimide), a 10 kDa dextran polymer, or larger protein (50 kDa). In the SA conjugate, the MTS has a biotin in the core structure. The biotin is then conjugated to a streptavidin protein labeled with a fluorophore.

[2] = Serum stability of MTS peptide; format: in vitro ADME; details: read-out: peptide remains intact
Method: The stability of the different MTS sequences is important. […] 80% of the peptide remains intact at 24 hours. Modifications were mapped by MS.

[3] = tested on: rat choroid plexus epithelial cells (Z310); assay: Transwell transport across rat choroid plexus epithelial cells (Z310); format: cell-based
Method: FIG. 15 is an in vitro transwell assay used to determine the ability of the MTS_CPEC4 phage clone or peptide to cross a choroid plexus barrier model derived from a Rat (Z310) cells). The amount of input placed on one side of the barrier (the “blood” side) and the amount that passes through the cells to the other side (the CSF side) is measured. The top table represents the data for the phage clone. The empty phage has no MTS peptide attached. The amount of phage in each side of the transwell is determined by bacterial titering. The bottom table represents the data for the synthetic peptide. Here the peptide is labeled with a fluorophore so the peptide on either side of the barrier can be measured. Dextran-dye (such as Alexa Fluor 488) is used as a control molecule. This molecule should not pass through the transwell and assures that the choroid plexus model is valid.
Other lead MTS peptides were examined using a transwell transport set up with rat choroid plexus cells (FIG. 24). Eight phage clones were enriched in the CSF. Individual phage clones were then tested for transcytosis in vitro on Z310 choroid plexus cells and CSF accumulation in rats. MTS_Z310-2 (SEQ ID NO:4) and MTS_Z310-5 (SEQ ID NO:7) phage clones were carried forward for further evaluation. […] The 20% transport is better than that seen with CPEC4. […]

[4] = tested on: choroid plexus epithelial cell layer; assay: Phage clone transport through human choroid plexus cells in vitro (FIG. 12); format: cell-based; details: phage-displayed peptide
Method: CPEC4_Phage clone sequence […] (SEQ ID NO:2) was the lead peptide sequence in these studies. CPEC4 phage clone is enriched as multiple rounds of panning were performed. CPEC4 phage clone is selected from the transwell indicating transport and release.
The phage clone remains viable during the cellular transport.

[5] = tested on: human primary choroid plexus epithelial cells; assay: Transwell transport of fluorescent protein cargo across human choroid plexus in vitro model; format: cell-based
Text: A rat model was developed as well. Selection to identify a phage clone from the library that crosses the choroid plexus epithelial barrier has also been informed. […] The phage clone was transported into the CSF selectively and data supported similar transport for the MTS peptide.
FIG. 13 represents a dimer of the CPEC4 peptide. The CPEC4 peptide was synthesized as a dimer and having a biotin handle that allows for attachment of fluorescently labeled proteins.
6-9% of the protein is transported across the cell layer. Tight junctions remain intact as witnessed by lack of dextran transport and maintenance of transepithelial resistance at the end of the experiment.

## Dimeric MTS_Z310-2: comprises two MTS peptides each having the sequence FPSWTSKNQQWTNQRQ (SEQ ID NO:4) (also: dimer, linkage not given here)
[1]
  amount present relative to MTS_CPEC4_V2: 9 ×
  distribution in brain (fluorescence imaging of coronal slices): distributed throughout the ventricular system

## CSCC[C@H](NC(=O)[C@H](CCC(N)=O)NC(=O)[C@H](Cc1c[nH]c2ccccc12)NC(=O)[C@H](CC(=O)O)NC(=O)[C@H](CC(C)C)NC(=O)[C@H](CO)NC(=O)[C@@H](NC(=O)[C@H](CCC(N)=O)NC(=O)[C@H](CC(C)C)NC(=O)[C@H](CCCCN)NC(=O)[C@H](Cc1ccc(O)cc1)NC(=O)[C@H](C)NC(=O)[C@H](CC(=O)O)NC(C)=O)[C@@H](C)O)C(=O)N[C@@H](Cc1c[nH]c2ccccc12)C(=O)N[C@@H](CC(N)=O)C(=O)N1CCC[C@H]1C(=O)NCCOCCOCCOCCOCCOCCOCCOCCOCCOCCOCCOCCC(N)=O [MTS-CPEC4_V2]
[1]; rats, tail vein injection
  accumulation in the CSF: accumulating in the CSF
Choroid plexus cells
  transport across monolayer of choroid plexus cells: efficiently transported
[2]
  remaining at 24 h: 80%

## Dimeric MTS_Z310-5: comprises two MTS peptides each having the sequence SKETYSMNAQRQHERS (SEQ ID NO:7) (also: dimer, linkage not given here)
[1]
  amount present relative to MTS_CPEC4_V2: 3 ×
  distribution in brain (fluorescence imaging of coronal slices): distributed throughout the ventricular system of the brain

## SKETYSMNAQRQHERS (molecular transport peptide) [MTS_Z310-5]
[3]
  transport of protein cargo: 20%

## FPSWTSKNQQWTNQRQ (molecular transport peptide) [MTS_Z310-2]
[3]
  transport of protein cargo: 20%

## MTS_CPEC4_V2 (SEQ ID NO: 1) dimers: comprises two MTS peptides each having the sequence DAYKLQTSLDWQMWNP (SEQ ID NO: 1) (also: dimer, linkage not given here)
[1]
  distribution in brain (fluorescence imaging of coronal slices): distributed throughout the ventricular system of the brain

## DGYKLQTSLDWQMWNP (molecular transport peptide) [MTS_CPEC4_V1]
Choroid plexus cells
  transport across monolayer of choroid plexus cells: efficiently transported
[4]
  transport of phage particle across choroid plexus epithelial cell layer: mediates transport of a large phage particle across choroid plexus epithelial cell layer
[5]
  protein transported across the cell layer: 6-9%

Reference: patent publication US12662511B2, “Molecular transport system to the central nervous system” (SRI International, priority 2020, dated 2026)
